# In ChEMBL document CHEMBL1201862, “PubChem BioAssay data set” (2004):
#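 Cultured in 96-well plates, cells were exposed to test compound for 48 hours across five concentrations. GI50 = concentration required for 50% inhibition of growth.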 The source made the active and inactive calls. Rule as the data show it: active = GI50 up to about 1.1 µM and inactive = higher.
# Tests used:
# Test in all cases: DTP human tumour cell line panel, 48 h
# SNB-19 = tested on: SNB-19
# ACHN = tested on: ACHN
# MDA-MB-435 = tested on: MDA-MB-435
# HCT-15 = tested on: HCT-15
# SW-620 = tested on: SW-620
# UACC-257 = tested on: UACC-257
# NCI-H522 = tested on: NCI-H522
# 786-0 = tested on: 786-0
# Hs-578T = tested on: Hs-578T
# OVCAR-3 = tested on: OVCAR-3
# CCRF-CEM = tested on: CCRF-CEM
# HOP-92 = tested on: HOP-92
# NCI-H460 = tested on: NCI-H460
# MDA-N = tested on: MDA-N
# EKVX = tested on: EKVX
# SK-OV-3 = tested on: SK-OV-3
# HCC 2998 = tested on: HCC 2998
# OVCAR-8 = tested on: OVCAR-8
# UO-31 = tested on: UO-31
# HOP-62 = tested on: HOP-62
# U-251 = tested on: U-251
# MCF7 = tested on: MCF7
# MOLT-4 = tested on: MOLT-4
# SF-295 = tested on: SF-295
# SK-MEL-5 = tested on: SK-MEL-5
# A549 = tested on: A549
# HCT-116 = tested on: HCT-116
# COLO 205 = tested on: COLO 205
# OVCAR-5 = tested on: OVCAR-5
# PC-3 = tested on: PC-3
# M14 = tested on: M14
# SF-268 = tested on: SF-268
# BT-549 = tested on: BT-549
# KM12 = tested on: KM12
# SN12C = tested on: SN12C
# OVCAR-4 = tested on: OVCAR-4
# UACC-62 = tested on: UACC-62
# RXF 393 = tested on: RXF 393
# K562 = tested on: K562
# SNB-75 = tested on: SNB-75
# DU-145 = tested on: DU-145
# NCI/ADR-RES = tested on: NCI/ADR-RES
# Malme-3M = tested on: Malme-3M
# T47D = tested on: T47D
# LOX IMVI = tested on: LOX IMVI
# SK-MEL-2 = tested on: SK-MEL-2
# MDA-MB-231 = tested on: MDA-MB-231
# SK-MEL-28 = tested on: SK-MEL-28
# NCI-H23 = tested on: NCI-H23
# TK-10 = tested on: TK-10
# CAKI-1 = tested on: CAKI-1
# HT-29 = tested on: HT-29
# IGROV-1 = tested on: IGROV-1
# A498 = tested on: A498
# SF-539 = tested on: SF-539
# SR = tested on: SR
# NCI-H226 = tested on: NCI-H226
# RPMI-8226 = tested on: RPMI-8226
# HL-60 = tested on: HL-60
smiles,measurement,setting,value
CC(C)(C)OC(=O)N1CCC[C@H]1CSC[C@@H]1CCCN1C(=O)OC(C)(C)C,GI50,SNB-19,25.4 µM (inactive)
same,GI50,ACHN,32.2 µM (inactive)
same,GI50,MDA-MB-435,20.7 µM (inactive)
same,GI50,HCT-15,27.9 µM
same,GI50,SW-620,30.3 µM (inactive)
same,GI50,UACC-257,28.8 µM (inactive)
same,GI50,NCI-H522,24 µM (inactive)
same,GI50,786-0,38.8 µM (inactive)
same,GI50,Hs-578T,27 µM (inactive)
same,GI50,OVCAR-3,22.4 µM (inactive)
same,GI50,CCRF-CEM,24.2 µM (inactive)
same,GI50,HOP-92,8.43 µM (inactive)
same,GI50,NCI-H460,34.3 µM (inactive)
same,GI50,MDA-N,29.4 µM (inactive)
same,GI50,EKVX,32.8 µM (inactive)
same,GI50,SK-OV-3,69.5 µM (inactive)
same,GI50,HCC 2998,39.8 µM (inactive)
same,GI50,OVCAR-8,29.3 µM (inactive)
same,GI50,UO-31,26.2 µM (inactive)
same,GI50,HOP-62,41.5 µM (inactive)
same,GI50,U-251,29.7 µM (inactive)
same,GI50,MCF7,28.6 µM (inactive)
same,GI50,MOLT-4,16.7 µM (inactive)
same,GI50,SF-295,30.8 µM (inactive)
same,GI50,SK-MEL-5,18.7 µM (inactive)
same,GI50,A549,24.4 µM (inactive)
same,GI50,HCT-116,25.6 µM (inactive)
same,GI50,COLO 205,16.8 µM (inactive)
same,GI50,OVCAR-5,34.2 µM (inactive)
same,GI50,PC-3,26.9 µM (inactive)
same,GI50,M14,18.6 µM (inactive)
same,GI50,SF-268,39.4 µM (inactive)
same,GI50,BT-549,23.8 µM (inactive)
same,GI50,KM12,20.9 µM (inactive)
same,GI50,SN12C,32.2 µM (inactive)
same,GI50,OVCAR-4,28.7 µM (inactive)
same,GI50,UACC-62,21.7 µM (inactive)
same,GI50,RXF 393,24.8 µM (inactive)
same,GI50,K562,24.5 µM (inactive)
same,GI50,SNB-75,23.9 µM (inactive)
same,GI50,DU-145,44 µM (inactive)
same,GI50,NCI/ADR-RES,18.7 µM (inactive)
same,GI50,Malme-3M,25.6 µM (inactive)
same,GI50,T47D,20.6 µM (inactive)
same,GI50,LOX IMVI,17.6 µM (inactive)
same,GI50,SK-MEL-2,18.3 µM (inactive)
same,GI50,MDA-MB-231,31.5 µM (inactive)
same,GI50,SK-MEL-28,24.6 µM (inactive)
same,GI50,NCI-H23,20.7 µM (inactive)
same,GI50,TK-10,56.9 µM (inactive)
same,GI50,CAKI-1,32.4 µM (inactive)
same,GI50,HT-29,17.8 µM (inactive)
same,GI50,IGROV-1,43.4 µM (inactive)
O=C(NCCN1C(=O)CN=C(c2ccc(Cl)cc2)c2cc(Cl)ccc21)OCc1ccccc1,GI50,SNB-19,18.9 µM (inactive)
same,GI50,ACHN,16.3 µM (inactive)
same,GI50,MDA-MB-435,15.1 µM (inactive)
same,GI50,HCT-15,13.4 µM
same,GI50,SW-620,13.6 µM (inactive)
same,GI50,UACC-257,15.3 µM (inactive)
same,GI50,NCI-H522,15.5 µM (inactive)
same,GI50,786-0,14.7 µM (inactive)
same,GI50,Hs-578T,17.4 µM (inactive)
same,GI50,OVCAR-3,12.6 µM (inactive)
same,GI50,CCRF-CEM,11.7 µM (inactive)
same,GI50,HOP-92,14.7 µM (inactive)
same,GI50,NCI-H460,13.4 µM (inactive)
same,GI50,MDA-N,16.5 µM (inactive)
same,GI50,A498,11.2 µM (inactive)
same,GI50,EKVX,20.7 µM (inactive)
same,GI50,SK-OV-3,52.2 µM (inactive)
same,GI50,SF-539,18.9 µM (inactive)
same,GI50,HCC 2998,14.3 µM (inactive)
same,GI50,OVCAR-8,16.3 µM (inactive)
same,GI50,UO-31,10.9 µM (inactive)
same,GI50,HOP-62,19.8 µM (inactive)
same,GI50,U-251,15.2 µM (inactive)
same,GI50,SR,9.48 µM (inactive)
same,GI50,MOLT-4,0.255 µM (active)
same,GI50,SF-295,13.7 µM (inactive)
same,GI50,SK-MEL-5,15.2 µM (inactive)
same,GI50,A549,10.6 µM (inactive)
same,GI50,HCT-116,11.9 µM (inactive)
same,GI50,COLO 205,19.8 µM (inactive)
same,GI50,OVCAR-5,19.2 µM (inactive)
same,GI50,PC-3,11.5 µM (inactive)
same,GI50,M14,16.4 µM (inactive)
same,GI50,NCI-H226,15.6 µM (inactive)
same,GI50,SF-268,12.4 µM (inactive)
same,GI50,BT-549,15.6 µM (inactive)
same,GI50,KM12,15.3 µM (inactive)
same,GI50,SN12C,14.3 µM (inactive)
same,GI50,OVCAR-4,8.71 µM (inactive)
same,GI50,UACC-62,14.8 µM (inactive)
same,GI50,RXF 393,10.8 µM (inactive)
same,GI50,K562,5.06 µM (inactive)
same,GI50,SNB-75,18.1 µM (inactive)
same,GI50,DU-145,18.2 µM (inactive)
same,GI50,RPMI-8226,19.7 µM (inactive)
same,GI50,NCI/ADR-RES,11.9 µM (inactive)
same,GI50,Malme-3M,16.8 µM (inactive)
same,GI50,T47D,30.8 µM (inactive)
same,GI50,LOX IMVI,17.4 µM (inactive)
same,GI50,SK-MEL-2,18.1 µM (inactive)
same,GI50,MDA-MB-231,14.8 µM (inactive)
same,GI50,SK-MEL-28,33.7 µM (inactive)
same,GI50,NCI-H23,14.1 µM (inactive)
same,GI50,TK-10,16.7 µM (inactive)
same,GI50,HL-60,10.1 µM (inactive)
same,GI50,CAKI-1,14.2 µM (inactive)
same,GI50,HT-29,11.8 µM (inactive)
same,GI50,IGROV-1,15.3 µM (inactive)
